We go through one molecule from patent US20150351390A1, “COMPOSITIONS AND METHODS FOR AUXIN-ANALOG CONJUGATION” (PIONEER HI-BRED INTERNATIONAL, INC., priority 2012, published 2015).

Test [1] has as its system wild-type Col-0 Arabidopsis. Put plainly: Root growth inhibition by 2,4-D, wild-type Arabidopsis. It counts as in vivo, Arabidopsis thaliana. The following applies: Non transgenic (Col-0). How it is done:
Seeds of Arabidopsis ecotype Columbia (Col-0) and GH3 transgenic events were surface sterilized with 70% (v/v) ethanol for 5 minutes and 10% (v/v) bleach for 15 minutes. After being washed three times with distilled water, the seeds were incubated at 4° C. for 4 days. The seeds were then germinated on 1× Murashige and Skoog (MS) medium with a pH of 5.7, 3% (w/v) sucrose, and 0.8% (w/v) agar. After incubation for 3.5 days, the seedlings were transferred to the basal medium containing B5 vitamin, 3% (w/v) sucrose, […] MES (pH 5.7), 1.2% (w/v) agar, and filter sterilized auxin herbicides 2,4-D or dicamba was added to the media at 60° C. The concentrations of 2,4-D were 0 μM, 0.1 μM, 0.5 μM, 0.7 μM, and 1.0 μM. The concentrations of dicmaba were 0 μM, 1.0 μM, 5.0 μM, 7.0 μM, and 10 μM. […]
After 6 days on media with various concentrations of 2,4-D or dicamba, the length of the primary root was measured. […]
Transgenic Arabidopsis lines overexpressing SEQ ID NO:3 were generated and evaluated for 2,4-D herbicide response as described in Example 5. […] Root length of 8 plants per transgenic line was measured and the average was compared to untreated seedlings within the same genetic background.

Test [2] has as its system Arabidopsis ecotype Col-0 plant. Description: Arabidopsis response to spot infiltrated auxins and conjugates. Format: in vivo, Arabidopsis thaliana. The following applies: 50, 150, and 500 μM; result in words. How it is done:
The effect of auxin conjugates was assessed using Arabidoposis (Arabidopsis thialiana) ecotype Col-0 plant. Prior to studies utilizing the auxin conjugates, levels of analytical grade (98%+pure) IAA, 2,4-D and dicamba in solution were applied at various concentrations directly to developmentally similar leaves of 20-23 day old Arabidopsis seedlings by needleless syringe spot infiltration methodology, in order to determine range of auxinic response and severity. Phenotypes were documented relative to control at 1 day post-spot infiltration and subsequently every other day, up to nine days post treatment. Three concentrations were chosen based on reproducibility, and conjugated forms were then studied with 4 or more replicate treatments for each, along with appropriate negative controls (H2O and 10% EtOH).
Examples 9 and 10 utilized a spot infiltration method for the delivery of an herbicide directly to leaves of a plant. The method generally allows for the directed delivery of a variety of agents to a localized area of a plant, e.g. localized region of leaves, for screening or assessment purposes, e.g. to quickly assess the response of a plant to the agent. As used in the foregoing examples, the spot infiltration method was used to introduce specific herbicides or specific conjugates of the herbicides to seedling plant leaves. Following introduction of the herbicide or the appropriate conjugate, plants were observed daily for nine days for characteristics of epinasty, trifoliate leaf curly, chlorosis, and new growth recovery.
Briefly, a solution of the desired agent is prepared of the desired agent, e.g. as described above in Example 10, solutions (5% EtOH) of 1, 2.5 and 5 mM IAA. The solution is then drawn into a 1 mL BD™ slip-tip syringe, bulk, non-sterile syringe (e.g. Becton, Dickinson and Company, Product No. 301025) with 100 μL markings. The desired volume is then applied to the leaf, e.g. as described in Examples 9 and 10, with the tip of the syring against the leaf and positive pressure applied to the syringe plunger. Sufficient pressure is applied in order to infuse the area beneath the syringe opening, but not so much pressure as to cause a visible-to-the-eye puncture or hole to form in the leaf. Some run-off of solution around the syringe opening is expected. In the foregoing examples, two spots were applied to each of two leaves per seedling for soybean plants. […] In soybean, both spots per leaf were at the distal portion of the leaf about 1-2 cm apart. When the method was applied to Arabidopsis, two developmentally intermediate aged leaves were chosen per plant, and one spot infiltration was carried out per leaf.
Generally, for Arabidopsis, the two leaves were chosen from opposite sides of rosette. In general, the spot infiltration method is carried out on younger plants in order to minimize experimental footprint and to maintain developmental uniformity. However, the method is not limited to use on young plants and can be easily applied to older plants as determined by the goals of a particular experiment.

The structures appear in SMILES notation.

Turning to `O=C(O)COc1ccc(Cl)cc1Cl` [2,4-D, 2,4-dichlorophenoxyacetic acid], the “Percentage of the average root length compared with 0 nM 2,4-D treatment” value in test [1] (10 nM 2,4-D) was 77%; in test [1] (100 nM 2,4-D) it was 58%. Further, in test [2], the “Phenotype, Arabidopsis” value was “increased auxinic response ranging from mild to more extreme epinasty”.
